Reference: EP0097031B1, “Nonapeptide and decapeptide analogs of LHRH useful as LHRH antagonists, their preparation and compositions containing them” (SYNTEX (U.S.A.) INC., priority 1982, dated 1988)
dPhe(4-Cl) = N[C@H](Cc1ccc(Cl)cc1)C(=O)O; d2Nal = N[C@H](Cc1ccc2ccccc2c1)C(=O)O; dDeh = not defined here

test system: female mice; experiment: acute subcutaneous toxicity in mice (21-day observation); type: in vivo; conditions: administered subcutaneously to each of 6 female mice, 0.3 m.g. per animal (or 12 mg/kg body weight)
Protocol: Compounds 8,16,18,19 and 24 from Example 8 were administered subcutaneously to each of 6 female mice at a dose level of 0.3 m.g. per animal (or 12 mg/kg body weight). During an observation period of 21 days, no deaths were recorded in any of the treatment groups.
The acute subcutaneous LD50 in mice is thus greater than 12 mg/kg for these compounds.

Substance | deaths recorded during an observation period of 21 days
N-Ac-D-Nal(2)-D-p-Cl-Phe-D-Trp-Ser-Tyr-D-Deh-Leu-Arg-Pro-GlyNH2 ({Ac-d2Nal-dPhe(4-Cl)-dW-Ser-Tyr-dDeh}-LRPG-NH2; reading uncertain; also: printed as N-Ac-D-Nal(2)-D-p-Cl-Phe-D-Trp-Ser-Tyr-D-Deh-Leu-Arg-Pro-GlyNH2) [Compound 18] | no deaths
N-Ac-D-Nal(2)-D-p-Cl-Phe-D-Trp-Ser-Tyr-D-Deh-Leu-Arg-Pro-D-AlaNH2 [Compound 19] | no deaths
N-Ac-D-Nal(2)-D-p-F-Phe-D-Trp-Ser-Tyr-D-Deh-Leu-Arg-Pro-GlyNH2 [Compound 16] | no deaths
N-Ac-D-p-Cl-Phe-D-p-Cl-Phe-D-Trp-Ser-Tyr-D-Dph-Leu-Arg-Pro-D-AlaNH2 [Compound 8] | no deaths
